Data reported in US20190282616A1, “MACROPHAGES REDIRECT PHAGOCYTOSIS BY NON-PROFESSIONAL PHAGOCYTES AND INFLUENCE INFLAMMATION” (University of Virginia Patent Foundation, priority 2016, published 2019).

Legend:
[1] = system: LR73 cells; conditions: for effect on IGF-1 induced increase in liposome uptake / basal uptake of liposomes: LR73 cells; for effect on IGF-1 induced increase in liposome uptake: inhibitor plus IGF-1; for basal uptake of liposomes: inhibitor without IGF-1; for uptake of PtdSer containing liposomes by LR73 cells: liposomes of 150-200 nm, IGF-1 50 ng/mL, EGF or VEGF 100 ng/mL each
Procedure: (§1) LR73, SVEC-40, BEAS-2B, and 16HBE14o-cells were seeded in a 24 well plate. Thymocytes were isolated from 4-6 week old mice and induced to undergo apoptosis with dexamethasone. Thymocytes or prepared microvesicles were then stained with either CypHer5E (GE Healthcare, PA15401) or TAMRA (Invitrogen, C-1171). LR73 and SVEC-40 cells were incubated with apoptotic thymocytes at a 1:10 phagocyte to target ratio, BEAS-2B at a 1:5 phagocyte to target ratio, and 16HBE14o—at a 1:20 phagocyte to target ratio for 2 hours. Mouse IGF-I (Sigma-Aldrich), human IGF-I (Sigma-Aldrich), human IGF-II (Sigma-Aldrich) were added to the phagocytes at the same time as addition of apoptotic targets. For IGFBP3 studies, IGFBP3 (Sigma-Aldrich) was added to media or supernatant from J774 cells for one hour to allow IGFBP3 to bind to any available IGF-I, then the mix is added to phagocytes along with apoptotic targets. For all pharmacological studies, phagocytes were pre-incubated with the compounds listed below for one hour prior to addition of apoptotic targets: cytochalasin D (Sigma-Aldrich, C8273, 1 μM), Latrunculin A (Tocris, 3973, 150 nM), CK-666 (Tocris, 3950, 25 μM-100 μM), OSI-906 (Selleckchem, S1091, 5 nM-40 nM), NVP-AEW541 (Selleckchem, S1034, 25 nM-100 nM), Rapamycin (Sigma-Aldrich, R0395, […]), MK-2206 2HCl (Selleckchem, S1078, 10 nM-1 U0126-EtOH (Selleckchem, S1102, […]), Wortmannin (Sigma-Aldrich, W1628, 50 nM-200 nM), Y27632 (Calbiochem, 688000, 3.75 μM-15 μM), or GSK269962 (Tocris, 4009, 80 nM-2 μM). […] Targets were then washed off three times with PBS, and the cells were dissociated from the plate with trypsin and the engulfment assessed by flow cytometry.
Liposomes were prepared by dissolving the lipids (phosphatidylserine, dioleoyl phosphatidylcholine, cholesterol and the lipid DiD dye) in chloroform, evaporating chloroform under flow of argon gas in a glass vial, then subjecting the lipid layer to overnight lyophilization to remove traces of organic solvent. Then normal saline was added for hydration, and intense vortexing was preformed to prepare multilamellar vesicles (MIN). Liposomes were repeatedly filtered through a 0.2 um Nuclepore polycarbonate filter to prepare smaller particles. Particle size was verified by dynamic light scattering using Nicomp 370.

[2] = system: LR73 cells; assay: In vitro engulfment assay: apoptotic thymocyte uptake by LR73 cells; type: cell-based, hamster; conditions: for basal phagocytosis of apoptotic cells with inhibitor alone: without IGF-1; for reversal of IGF-1 mediated engulfment suppression in LR73 cells: agent added in the presence of IGF-1; for apoptotic cell uptake (engulfment) by LR73 cells: soluble mediator alone, IGF-I at concentrations reported in serum (100-600 ng/mL), other factors over a range of concentrations; for apoptotic cell uptake by LR73 cells: human insulin or human IGF-II, at higher concentrations than IGF-1
Procedure: as §1

[3] = system: IGF-1R, Akt and Erk1/2 phosphorylation in LR73 cells; assay: Immunoblotting of signaling in LR73 cells; type: cell-based, hamster; conditions: for phosphorylation of IGF-1R and Erk: LR73 cells stimulated with IGF-1 and treated with inhibitor; for early downstream signaling events (Erk1/2 phosphorylation): serum-starved LR73 cells, 100 ng/mL growth factor
Procedure: LR73, J774, or BEAS-2B cells were seeded in a 60 mm dish at a concentration of 5×10^5. […] Cells were lysed in RIPA buffer and used in Western blots. The blots were probed for phospho-Erk1/2 (Cell Signaling Technology, #4370), phospho-Akt (Cell Signaling Technology, #4060), phospho-IGF-1R (Cell Signaling, #3024), total Erk2 (Santa Cruz Biotechnology, #sc-154-G), total Akt (Cell Signaling Technology, #4691), total IGF-1R (Cell Signaling, #9750), and anti-B-actin-HRP (Sigma-Aldrich, #A3854) followed by chemiluminescence detection.

[4] = system: MH-S alveolar macrophages; assay: Microvesicle secretion by MH-S alveolar macrophages; type: cell-based, mouse; conditions: IL-4 treated MH-S alveolar macrophages, counted using qNano
Procedure: MH-S, mouse alveolar macrophages, or primary mouse alveolar macrophages were seeded. After adherence, the media was replaced with 0.22 μm filtered media to remove any contaminating microvesicles. After an overnight incubation, the supernatant was harvested and spun at 5000×g to remove cell debris and apoptotic bodies. The pellet was discarded and the resulting supernatant was filtered through 0.8 μm filter and spun again at 17,000×g. The pelleted microvesicles were then washed with HBSS and then spun again at 17,000×g. For engulfment assays, microvesicles were stained with TAMRA for 20 minutes and then added to BEAS-2B cells for 90 minutes. For flow cytometry, purified particles were stained with CD11c, Siglec F, and Annexin V (BD Biosciences, Cat. No. 550475) and processed on Imagestream™ imaging flow cytometer (Amnis). Microvesicle size distribution was characterized using qNano (IZON Science) with a NP400 membrane and at least 500 particles were counted. Microvesicles were prepared for cryo-electron microscopy using standard methods and imaged on an FEI TF20.

[5] = system: IGF-1 in BAL fluid; assay: In vivo cytokine administration: IGF-1 in BAL fluid; conditions: 1 μg recombinant mouse cytokine intranasally for two consecutive days
Procedure: Mice were administered intranasally with 1 μg of recombinant mouse IL-4, IL-5, or IL-13 (eBiosciences), 1×10^6 apoptotic Jurkat cells, or PBS as control, for two consecutive days. On the third day, BAL fluid was recovered and centrifuged; the supernatant was stored at −80° C. for subsequent cytokine analysis. IL-4, IL-5, IL-6, and CCL-11/Eotaxin-1 in the BAL fluid of mice that were sensitized with HDM (regimen #1) were quantified by a multiplex Luminex performed by the University of Virginia Flow Cytometry Core Facility. Secretion of IGF-1 from J774 cells, peritoneal macrophages, and BAL fluids, as well as TSLP from BAL fluids, were measured by ELISA (R&D Systems).

[6] = system: peritoneal macrophages; assay: IGF-1 secretion by peritoneal macrophages (ELISA); type: cell-based, mouse; conditions: treated with IL-4
Procedure: To obtain bone-marrow derived macrophages, femurs were removed from 8 week old mice and flushed with 5 mL of sterile PBS containing 5% FBS. The cell suspension was centrifuged, treated with red blood cell lysis buffer, washed, and then plated onto sterile petri dishes in DMEM containing 10% L929 media, 10% FBS and 1% penicillin/streptomycin/glutamine (PSQ). Media was replenished every 2 to 3 days and differentiated cells were used at day 6 post-harvest. Resident peritoneal macrophages were obtained by flushing the peritoneal cavity of mice with 10 mL of cold PBS containing 5% FBS. Collected cells were spun down, resuspended in X-VIVO 10 (Lonza) and plated at a concentration of 3×10^5 cells per well in a 24 well plate for IGF-1 secretion assays, and 5×10^5 per well in a 24 well plate for engulfment assays. Floating cells were washed the next day and remaining peritoneal macrophages were used 2 days after isolation. […]
IL-4, IL-5, IL-6, and CCL-11/Eotaxin-1 in the BAL fluid of mice that were sensitized with HDM (regimen #1) were quantified by a multiplex Luminex performed by the University of Virginia Flow Cytometry Core Facility. Secretion of IGF-1 from J774 cells, peritoneal macrophages, and BAL fluids, as well as TSLP from BAL fluids, were measured by ELISA (R&D Systems).

[7] = system: IC-21 cells; assay: Apoptotic thymocyte engulfment by IC-21 cells; type: cell-based; conditions: indicated concentrations of mouse IGF-1 or human insulin

`Cc1[nH]c2ccccc2c1CCNC(=O)c1ccccc1F` [CK-666] was tested, and the “effect on IGF-1 induced increase in liposome uptake” value (from here on “effect on IGF-1 induced increase”) [1] was “minimal effect”.
`C=C1[C@@H](C)[C@H]2[C@H](Cc3ccccc3)NC(=O)[C@]23[C@H](OC(C)=O)/C=C/[C@@](C)(O)C(=O)[C@@H](C)C/C=C/[C@H]3[C@@H]1O` [Cytochalasin D] was tested, and the “effect on IGF-1 induced increase” value [1] was “blocked the IGF-1 induced increase in liposome uptake”, the “basal uptake of liposomes” value [1] was “did not affect the basal uptake of liposomes” and the “morphology of treated LR73 cells” value ([1]; for the duration of the assay) was “appeared morphologically normal”. For the same molecule, the “basal phagocytosis of apoptotic cells with inhibitor alone” value [2] was “potently inhibited phagocytosis of apoptotic cells”.
With `CCn1c(-c2nonc2N)nc2cnc(Oc3cccc(NC(=O)c4ccc(OCCN5CCOCC5)cc4)c3)cc21` [GSK269962, reference compound] the “reversal of IGF-1 mediated engulfment suppression in LR73 cells” value (shortened to “reversal … in LR73 cells”) [2] was “does not appear to rescue IGF-1 induced engulfment suppression” and the “basal phagocytosis of apoptotic cells with inhibitor alone” value [2] was “basally increases phagocytosis of apoptotic cells”.
For `C/C1=C/C(=O)O[C@@H]2C[C@@H](CC[C@H](C)/C=C\C=C\CC1)O[C@@](O)([C@@H]1CSC(=O)N1)C2` [Latrunculin A], the “effect on IGF-1 induced increase” value [1] was “reversed IGF-1 mediated enhancement of liposome uptake” and the “basal uptake of liposomes” value [1] was “without affecting the basal uptake of liposomes”.
`Nc1ncnc2c1c(-c1cccc(OCc3ccccc3)c1)cn2C1CC(CN2CCC2)C1` (centres unmarked) [NVP-AEW541, reference compound] was tested, and the “reversal … in LR73 cells” value [2] was “rescued the engulfment capacity of LR73 cells” and the “phosphorylation of IGF-1R and Erk” value [3] was “concomitant decrease in phosphorylation of IGF-1R and Erk”.
In the case of `C[C@]1(O)C[C@@H](c2nc(-c3ccc4ccc(-c5ccccc5)nc4c3)c3c(N)nccn32)C1` [OSI-906, reference compound], the “effect on IGF-1 induced increase” value [1] is reported as “reduced the increased liposome uptake”, the “reversal … in LR73 cells” value [2] is reported as “rescued the engulfment capacity of LR73 cells” and the “phosphorylation of IGF-1R and Erk” value [3] is reported as “concomitant decrease in phosphorylation of IGF-1R and Erk”.
For `C[C@@H](N)[C@H]1CC[C@H](C(=O)Nc2ccncc2)CC1` [Y27632, reference compound], the “reversal … in LR73 cells” value [2] was “does not appear to rescue IGF-1 induced engulfment suppression” and the “basal phagocytosis of apoptotic cells with inhibitor alone” value [2] was “basally increases phagocytosis of apoptotic cells”.
For “EGF: growth factor of the tested panel of soluble mediators (NSDSECPLSHDGYCLHDGVCMYIEALDKYACNCVVGYIGERCQYRDLKWWELR; Epidermal growth factor; UniProt P01133 971-1023, looked up)”, the “uptake of PtdSer containing liposomes by LR73 cells” value [1] was “not seen”, the “apoptotic cell uptake (engulfment) by LR73 cells” value [2] was “did not alter engulfment” and the “early downstream signaling events (Erk1/2 phosphorylation)” value (“early downstream signaling events” below) [3] was “elicited early downstream signaling events”.
“IGFBP3: IGF binding protein that stabilizes and sequesters IGF-1 (Sigma-Aldrich)” was tested, and the “reversal of suppression by macrophage produced IGF-1” value ([2]; J774 supernatant incubated with IGFBP3, LR73 cells) was “reversed by IGFBP3 addition”, the “reversal … in LR73 cells” value [2] was “restored the phagocytic capability of LR73 cells” and the “basal phagocytosis by LR73 cells” value ([2]; supernatant of unstimulated J774 cells plus IGFBP3) was “increases the basal phagocytosis”.
“IL-4: cytokine; recombinant mouse IL-4 (eBiosciences)” was tested, and the “microvesicles secretion by macrophages” value [4] was “increased microvesicles secretion”, the “IGF-1 in bronchoalveolar lavage (BAL) fluid” value [5] was “increased level of IGF-1” and the “IGF-1 secretion by peritoneal macrophages” value [6] was “confirmed IGF-1 secretion”.
For “PDGF-AA: growth factor of the tested panel of soluble mediators”, the “apoptotic cell uptake (engulfment) by LR73 cells” value [2] was “did not alter engulfment” and the “early downstream signaling events” value [3] was “elicited early downstream signaling events”.
For VEGF, the “uptake of PtdSer containing liposomes by LR73 cells” value [1] was “not seen”, the “apoptotic cell uptake (engulfment) by LR73 cells” value [2] was “did not alter engulfment” and the “early downstream signaling events” value [3] was “elicited early downstream signaling events”.
fibroblast growth factor 2 [FGF2] was tested, and the “apoptotic cell uptake (engulfment) by LR73 cells” value [2] was “did not alter engulfment” and the “early downstream signaling events” value [3] was “elicited early downstream signaling events”.
In the case of insulin-like growth factor II [IGF-II], the “apoptotic cell uptake by LR73 cells” value [2] is reported as “could also reduce apoptotic cell uptake”.
In the case of “insulin: shares structural similarity with IGF-1, lower affinity for IGF-1R”, the “apoptotic cell uptake by LR73 cells” value [2] is reported as “could also reduce apoptotic cell uptake” and the “corpse uptake by IC-21 cells” value [7] is reported as “engulf apoptotic cells at normal capacity”.
